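Protocol summary: plate cells (96-well), add compound at 5 concentrations, incubate 48 h, interpolate endpoints linearly. GI50 = concentration required for 50% inhibition of growth.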 Calls of active or inactive are those of the source. Cut-off read from the data, not from the text of the source: active = GI50 up to about 1.1 µM and inactive = higher.
Legend:
Assay in all cases: inhibition of tumour cell growth, NCI panel, 48 h
[1] = test system: HCC 2998
[2] = test system: Malme-3M
[3] = test system: MDA-MB-435
[4] = test system: T47D
[5] = test system: BT-549
[6] = test system: K562
[7] = test system: EKVX
[8] = test system: Hs-578T
[9] = test system: LOX IMVI
[10] = test system: OVCAR-4
[11] = test system: SNB-19
[12] = test system: RPMI-8226
[13] = test system: COLO 205
[14] = test system: M14
[15] = test system: SW-620
[16] = test system: HOP-62
[17] = test system: MOLT-4
[18] = test system: MDA-N
[19] = test system: DU-145
[20] = test system: NCI-H460
[21] = test system: NCI-H226
[22] = test system: UACC-257
[23] = test system: NCI-H522
[24] = test system: SK-MEL-5
[25] = test system: MDA-MB-231
[26] = test system: UO-31
[27] = test system: SK-MEL-2
[28] = test system: SN12C
[29] = test system: CAKI-1
[30] = test system: SF-539
[31] = test system: A498
[32] = test system: SF-295
[33] = test system: MCF7
[34] = test system: PC-3
[35] = test system: UACC-62
[36] = test system: OVCAR-3
[37] = test system: OVCAR-5
[38] = test system: SK-OV-3
[39] = test system: A549
[40] = test system: 786-0
[41] = test system: SK-MEL-28
[42] = test system: SNB-75
[43] = test system: HL-60
[44] = test system: ACHN
[45] = test system: NCI-H23
[46] = test system: CCRF-CEM
[47] = test system: HCT-15
[48] = test system: U-251
[49] = test system: SF-268
[50] = test system: HCT-116
[51] = test system: TK-10
[52] = test system: RXF 393
[53] = test system: HT-29
[54] = test system: OVCAR-8
[55] = test system: SR
[56] = test system: KM12
[57] = test system: HOP-92
[58] = test system: IGROV-1

SMILES: N#CC[C@@H](O)COc1ccccc1
- GI50 [1]: > 100 µM (inactive)
- GI50 [2]: > 100 µM (inactive)
- GI50 [3]: > 100 µM (inactive)
- GI50 [4]: > 100 µM (inactive)
- GI50 [5]: > 100 µM (inactive)
- GI50 [6]: > 100 µM (inactive)
- GI50 [7]: > 100 µM (inactive)
- GI50 [8]: > 100 µM (inactive)
- GI50 [9]: > 100 µM (inactive)
- GI50 [10]: > 100 µM (inactive)
- GI50 [11]: > 100 µM (inactive)
- GI50 [12]: > 100 µM (inactive)
- GI50 [13]: > 100 µM (inactive)
- GI50 [14]: > 100 µM (inactive)
- GI50 [15]: > 100 µM (inactive)
- GI50 [16]: > 100 µM (inactive)
- GI50 [17]: > 100 µM (inactive)
- GI50 [18]: > 100 µM (inactive)
- GI50 [19]: > 100 µM (inactive)
- GI50 [20]: > 100 µM (inactive)
- GI50 [21]: > 100 µM (inactive)
- GI50 [22]: > 100 µM (inactive)
- GI50 [23]: > 100 µM (inactive)
- GI50 [24]: > 100 µM (inactive)
- GI50 [25]: > 100 µM (inactive)
- GI50 [26]: > 100 µM (inactive)
- GI50 [27]: > 100 µM (inactive)
- GI50 [28]: > 100 µM (inactive)
- GI50 [29]: > 100 µM (inactive)
- GI50 [30]: > 100 µM (inactive)
- GI50 [31]: > 100 µM (inactive)
- GI50 [32]: > 100 µM (inactive)
- GI50 [33]: > 100 µM (inactive)
- GI50 [34]: > 100 µM (inactive)
- GI50 [35]: > 100 µM (inactive)
- GI50 [36]: > 100 µM (inactive)
- GI50 [37]: > 100 µM (inactive)
- GI50 [38]: > 100 µM (inactive)
- GI50 [39]: > 100 µM (inactive)
- GI50 [40]: > 100 µM (inactive)
- GI50 [41]: > 100 µM (inactive)
- GI50 [42]: > 100 µM (inactive)
- GI50 [43]: > 100 µM (inactive)
- GI50 [44]: > 100 µM (inactive)
- GI50 [45]: > 100 µM (inactive)
- GI50 [46]: > 100 µM (inactive)
- GI50 [47]: > 100 µM
- GI50 [48]: > 100 µM (inactive)
- GI50 [49]: > 100 µM (inactive)
- GI50 [50]: > 100 µM (inactive)
- GI50 [51]: > 100 µM (inactive)
- GI50 [52]: > 100 µM (inactive)
- GI50 [53]: > 100 µM (inactive)
- GI50 [54]: > 100 µM (inactive)
- GI50 [55]: > 100 µM (inactive)
- GI50 [56]: > 100 µM (inactive)

SMILES: C=C(C)C1CCC(C(=O)O)CC1 (stereo unspecified)
- GI50 [1]: > 100 µM (inactive)
- GI50 [2]: > 100 µM (inactive)
- GI50 [3]: > 100 µM (inactive)
- GI50 [4]: > 100 µM (inactive)
- GI50 [5]: > 100 µM (inactive)
- GI50 [6]: > 100 µM (inactive)
- GI50 [7]: > 100 µM (inactive)
- GI50 [8]: > 100 µM (inactive)
- GI50 [9]: > 100 µM (inactive)
- GI50 [11]: > 100 µM (inactive)
- GI50 [12]: > 100 µM (inactive)
- GI50 [57]: > 100 µM (inactive)
- GI50 [13]: > 100 µM (inactive)
- GI50 [14]: > 100 µM (inactive)
- GI50 [15]: > 100 µM (inactive)
- GI50 [16]: > 100 µM (inactive)
- GI50 [17]: > 100 µM (inactive)
- GI50 [18]: > 100 µM (inactive)
- GI50 [19]: > 100 µM (inactive)
- GI50 [20]: > 100 µM (inactive)
- GI50 [21]: > 100 µM (inactive)
- GI50 [22]: > 100 µM (inactive)
- GI50 [23]: > 100 µM (inactive)
- GI50 [24]: > 100 µM (inactive)
- GI50 [25]: > 100 µM (inactive)
- GI50 [26]: > 100 µM (inactive)
- GI50 [27]: > 100 µM (inactive)
- GI50 [28]: > 100 µM (inactive)
- GI50 [29]: > 100 µM (inactive)
- GI50 [30]: > 100 µM (inactive)
- GI50 [31]: > 100 µM (inactive)
- GI50 [32]: > 100 µM (inactive)
- GI50 [33]: > 100 µM (inactive)
- GI50 [34]: > 100 µM (inactive)
- GI50 [35]: > 100 µM (inactive)
- GI50 [36]: > 100 µM (inactive)
- GI50 [37]: > 100 µM (inactive)
- GI50 [38]: > 100 µM (inactive)
- GI50 [39]: > 100 µM (inactive)
- GI50 [40]: > 100 µM (inactive)
- GI50 [41]: > 100 µM (inactive)
- GI50 [42]: > 100 µM (inactive)
- GI50 [44]: > 100 µM (inactive)
- GI50 [45]: > 100 µM (inactive)
- GI50 [46]: > 100 µM (inactive)
- GI50 [47]: > 100 µM
- GI50 [48]: > 100 µM (inactive)
- GI50 [49]: > 100 µM (inactive)
- GI50 [58]: > 100 µM (inactive)
- GI50 [50]: > 100 µM (inactive)
- GI50 [51]: > 100 µM (inactive)
- GI50 [52]: > 100 µM (inactive)
- GI50 [53]: > 100 µM (inactive)
- GI50 [54]: > 100 µM (inactive)
- GI50 [56]: > 100 µM (inactive)
